Assay results taken from US5091379A, “Topical antinflammatory compositions with minimal systemic absorption” (Du Pont Merck Pharmaceutical Company, priority 1989, dated 1992).
Several values for one entry are separate records, joined by “and”; a condition that tells them apart may be missing. Equal entries are not always repeated.

Tests used:
[1] = In vivo absorption: excretion of radioactivity in rat urine and feces; set-up: species or system Male Sprague-Dawley rats; details: for Percent of Dose Excreted in Feces / Percent of Dose Excreted in Urine / Percent of Dose Excreted, Total: IV 5 mg/kg
Experimental: Approximately 10 mg of 14C-2-phenylmethyl-1-naphthol and 4.99 g of unlabeled 2-phenylmethyl-1-naphthol were used in the preparation of a 100 g 5% ointment or cream. The ointment was a PEG-based ointment and the cream was an oil-in-water emulsion. The specific activities for the ointment and cream were 2.71 and 2.78 uCi/g, respectively. An IV dosing solution (2.5 mg/mL) was prepared prior to dose administration by dissolving radiolabeled 14C-2-phenylmethyl-1-naphthol and unlabeled compound (1:1.5 ratio) in a PEG 400/water (60/40 v/v) solution.
Male Sprague-Dawley rats weighing 240-300 g were used for the studies. Sixteen rats were shaved on the back one day prior to the treatment. Eight of the rats had the application site abraded by a diamond-tipped marker (2 parallel lines and 2 interceding lines). The abrasion penetrated only the stratum corneum, but not the dermis. A 0.5 g dose of 14C-2-phenylmethyl-1-naphthol ointment or cream was applied to an area of approximately 4 cm^2 on 4 nonabraded and 4 abraded rats. The treatment site was covered with gauze and occluded with a dental dam. It was further secured by micropore tape and a strip of adhesive elastoplast. Each rat was placed in an open metabolism cage. […] Four other rats weighing 270-320 g were given an intravenous dose.
In order to determine the percent of dose in the ointment or cream that was absorbed percutaneously into the systemic circulation, an IV dose of 14C-2-phenylmethyl-1-naphthol was given to rats. The total radioactivity excreted after the IV dose serves as a reference for evaluation of topical absorption. […] The reason for the low radioactivity recovery is unknown. The percutaneous absorption from the ointment was about 2% of the applied dose. On the other hand, absorption from the cream was much higher and was about 28% of the dose.

[2] = In vitro penetration through (inflammed) hairless mouse skin; format: in vitro ADME; details: Study I, 25 mg/0.1 ml acetone
Experimental: The acetone vehicles were allowed to dry. […] The donor chamber was sealed with parafilm.
Studies were performed in which skin inflammation was induced in hairless mice in vivo, and permeability of that skin was evaluated in vitro. The three studies differed in the methods of producing inflammation. A non-inflammed control was run for each. The formulations tested were the oil/water cream and PEG ointment containing excipients (See Table 2) as in the previous example. There was no difference between the control and inflammed skin in active compound flux in all studies and for all formulations, except study II with 5% cream. […] As with human skin, acetone and cream vehicles consistently gave higher skin penetration rates than the PEG ointment.

AA-induced edema = test: AA-induced ear edema, topical antiinflammatory activity; format: in vivo, Male CF1 mice; details: for % Inhibition: 3 h pretreatment
Experimental: The AA model was also used to evaluate and compare PEG ointment formulations containing 2-phenylmethyl-1-naphthol with oil/water cream formulations containing 2-phenylmethyl-1-naphthol. These comparisons are illustrated in Examples 5 to 7.
Male 18-20 gram CF1 mice were used in these experiments. AA was made up fresh daily in acetone at a concentration of about 100 mg/ml. 10 μl of the AA solution (1 mg AA) was applied to the inner surface of the ear to induce swelling. […] Control animals were pretreated about 3 hours before AA application with placebo vehicles (drug free ointment or cream) with 5 mg of vehicle applied to both ears. Drug-treated animals were pretreated about 3 hours before AA application with 5 mg of the vehicle containing active drug, applied to both ears. AA was applied to 1 ear of each mouse. One hour after AA challenge, the animals were euthanized by cervical dislocation and both ears were removed. 6 mm disks were then taken using a skin biopsy punch and weighed. Swelling was determined as the difference between the weights of the AA and vehicle treated ears. Percent inhibition of swelling was calculated as follows: [formula]
Table 7 summarizes the data for PEG ointment and oil/water cream formulations containing various concentrations of active compound. Each data point is the average of 2 experiments with 10 animals per treatment cell.

5-lipoxygenase = details: cited from earlier work
[3] = Hydrolysis of 2 to 3 in solution and during skin penetration; format: physicochemical

Oc1c(Cc2ccccc2)ccc2ccccc12 [14C-1, 14C-2-phenylmethyl-1-naphthol]
Percent of Dose Excreted in Feces ([1]; individual rats, 5 mg/kg): 38.86% and 38.32% and 40.39% and 37.91% | Percent of Dose Excreted in Urine ([1]; individual rats, 5 mg/kg): 8.55% and 7.84% and 8.96% and 8.74% | Percent of Dose Excreted, Total ([1]; individual rats, 5 mg/kg): 47.41% and 46.16% and 49.35% and 46.65% | Percent of Dose Excreted in Feces ([1]; mean of 4 rats): 38.87% | Percent of Dose Excreted in Urine ([1]; mean of 4 rats): 8.52% | Percent of Dose Excreted, Total ([1]; mean of 4 rats): 47.39% | percutaneous absorption ([1]; from PEG ointment, percent of applied dose): about 2% | percutaneous absorption ([1]; from cream, percent of dose): about 28% | detectable radioactivity in the urine ([1]; topical ointment or cream, daily collection): no detectable radioactivity was found in the urine

Oc1c(Cc2ccccc2)ccc2ccccc12 [compound 1, 2-(phenylmethyl)-1-naphthol]
Lag Time ([2]; AA inflammed skin): 13.8 ± 1.3 h | Lag Time ([2]; control skin): 10.8 ± 1.7 h | % Inhibition (AA-induced edema; PEG ointment, 0.5% 1): 15% | % Inhibition (AA-induced edema; PEG ointment, 1% 1): 62% | % Inhibition (AA-induced edema; PEG ointment, 5% 1): 70% | % Inhibition (AA-induced edema; PEG ointment, 10% 1): 90% | % Inhibition (AA-induced edema; cream, 0.5% 1): 26% | % Inhibition (AA-induced edema; cream, 1% 1): 60% | % Inhibition (AA-induced edema; cream, 5% 1): 86% | % Inhibition (AA-induced edema; cream, 10% 1): 87% | inhibiting the edema induced by topical arachidonic acid (AA-induced edema; mouse, in vivo): very potent in inhibiting the edema | inhibition of 5-lipoxygenase (5-lipoxygenase): exceptionally potent inhibitors of 5-lipoxygenase

CC(=O)Oc1c(Cc2ccccc2)ccc2c1ccn2C [compound 2, 1-methyl-4-acetoxy-5-phenylmethyl indole]
hydrolysis [3]: hydrolyzes to 1-methyl-4-hydroxy-5-phenylmethyl indole (3)
